Reference: paper PMC9501633, “Synthesis, Characterisation and Mechanism of Action of Anticancer 3-Fluoroazetidin-2-ones” (Pharmaceuticals, 2022)

Columns and labels:
Assay in all cases: AlamarBlue cell viability assay
Format in all cases: cell-based
[1] = system: MCF-7 human breast cancer cells; conditions: Homo sapiens, MCF7, 72 h
Description: The antiproliferative potential of the synthesised 3-fluoro β-lactams 26–35 and 3,3-difluoro β-lactams 36–45 was evaluated in MCF-7 human breast cancer cells using the AlamarBlue assay, with CA-4 as reference compound (Figure 3). […] The results for the preliminary in vitro antiproliferative screen for 3-fluoro β-lactam compounds (26–29), which contain different substituents at the para position in the B ring, are presented in Figure 3A.
Cells were seeded at a density of 5 × 10^3 cells/well (MCF-7 and MDA-MB-231) and 1 × 10^4 cells/well (HEK-293T) in 96-well plates (200 μL per well). After 24 h, cells were then treated with medium alone, with vehicle (1% ethanol (v/v)) or with CA-4 or β-lactam compounds at 1 μM and 10 μM concentrations. […] Cell proliferation for MCF-7 cells was analysed with the AlamarBlue assay (Invitrogen Corp.) as previously described by us. After 72 h, AlamarBlue (10% (v/v)) was added to each well, and plates were incubated for 3–5 h at 37 °C in the dark. Fluorescence results were obtained with a 96-well fluorimeter with excitation at 530 nm and emission at 590 nm with results recorded as percentage viability relative to vehicle control (100%). Dose–response curves were obtained and IC50 values (concentration of drug resulting in 50% reduction in cell survival) were calculated using Prism (GraphPad Software, Inc., La Jolla, CA, USA).
Figure 3 Preliminary cell viability data for 3-fluoro and 3,3-difluoro β-lactam compounds. (A) 3-Fluoro β-lactam compounds containing different para-substituent ring B 26–29; 3-fluoro β-lactam compounds containing different meta-substituent ring B 30, 32–35; (B) 3-difluoro β-lactam compounds containing different para-substituent ring B 36–39; 3-difluoro β-lactam compounds containing different meta-substituent ring B 40, 42–45 in MCF-7 breast cancer cells. Cell proliferation of MCF-7 cells was determined with an AlamarBlue assay (seeding density […] for 96-well plates). Compound concentrations of either 10 μM or 1 μM for 72 h were used to treat the cells with control wells containing vehicle ethanol (1% v/v) and CA-4 (10 μM and 1 μM). The mean value for three experiments is shown with the ± S.E.M. for three independent experiments.

Hs578T cells = conditions: Homo sapiens, Hs-578T
Description: (§1) The potent 3-fluoro-β-lactam compound 33 synthesised was also evaluated in the triple-negative MDA-MB-231 cell line which lacks expression of the estrogen and progesterone receptors (ER/PR) and the HER2 receptor. […]. Compound 32 was also evaluated in the triple-negative breast cancer cell line Hs578T and its isogenic subclone Hs578T(i)8 (Figure 4C). Hs578Ts(i)8 cells have 2.5-fold more migratory capacity and 3-fold more invasive capacity through the extracellular matrix than the parental cell line (Hs578T) and have 30% more CD44+/CD24-/low cells and in vivo proliferation. […]. The human breast carcinoma cell lines MCF-7 and MDA-MB-231 were purchased from the European Collection of Animal Cell Cultures (ECACC, Salisbury, UK). The SW-480 cells were a kind gift from Dr. Brian Flood, School of Biochemistry and Immunology, Trinity College Dublin. The human breast tumour cell line MCF-7 was cultured in Eagles minimum essential medium with 10% foetal bovine serum, 2 mM L-glutamine and 100 μg/mL penicillin/streptomycin. The medium was supplemented with 1% non-essential amino acids. The human breast tumour cell line MDA-MB-231 cells were maintained in Dulbecco’s modified Eagle’s medium (DMEM) with the addition of penicillin/streptomycin (100 µg/mL), 10% (v/v) foetal bovine serum and 2 mM L-glutamine (complete medium). Breast cancer cell line Hs578T and its isogenic subclone Hs578T(i)8 were a kind gift from Dr. Susan McDonnell, School of Chemical and Bioprocess Engineering, University College Dublin. SW-480 cells, triple-negative breast cancer Hs578T cells and invasive variant Hs578T8i cells were cultured in DMEM with GlutaMAX-I, with the same supplement in the absence of non-essential amino acids. HEK-293T cells (normal epithelial embryonic kidney cells) were cultured in DMEM with GlutaMAX-I in the absence of non-essential amino acids. The SW-480 cells were cultured in DMEM with GlutaMAX-I, with the same supplement in the absence of non-essential amino acids. All media contained 100 U/mL penicillin and 100 μg/mL streptomycin. The cells were seeded into pre-warmed complete medium (10 × 10^4 cells/mL) and maintained at a cell density of 2–19 × 10^5 cells /mL by the addition of fresh media. The cell number was monitored using a haemocytometer. Cells were maintained at 37 °C in 5% CO2 in a humidified incubator. […]
(§2) Figure 4 Antiproliferative activity of 3-fluoro β-lactams on MCF-7, MDA-MB-231, Hs578T and Hs578T isogenic subclone Hs578T(i)8 breast cancer cells and non-tumourigenic HEK-293T cells. […] Cell viability was expressed as a percentage of vehicle control (ethanol 1% (v/v))-treated cells. […] Cell viability was expressed as a percentage of vehicle control (ethanol 1% (v/v))-treated cells and was measured by AlamarBlue assay (average of three independent experiments). […]

Hs578Ts(i)8 cells = system: Hs578Ts(i)8 cells
Description: as §1, §2

IC50 ([1]; MCF-7, 72 h): 75 nM
SMILES: COc1ccc(C2C(F)C(=O)N2c2cc(OC)c(OC)c(OC)c2)cc1O (stereo not shown) [Compound 32, 3-Fluoro-4-(3-hydroxy-4-methoxyphenyl)-1-(3,4,5-trimethoxyphenyl)azetidin-2-one]
viability at 1 µM ([1]; MCF-7, 1 μM, 72 h, read-out: viable cells remaining): 30%
IC50 (Hs578T cells): 33 nM
IC50 (Hs578Ts(i)8 cells): 65 nM
